The structures appear in SMILES notation.

One may read the IC50 as the concentration that gives 50% inhibition.

Experiment [1] has as its target T1, human phosphoinositide-3 kinase (PI3K) delta (Homo sapiens, UniProt O00329).
T1 construct: myristoylation signal (myristoylated form); expressed in transfected cells
Kind of experiment: PI3K-mediated Akt 1/2 (S473) phosphorylation in Rat-1 cells (Cell PI3Kδ). It counts as cell-based. The note with it: Rat-1 cells overexpressing myristoylated human PI3K delta; p-Akt (Ser473). Here is the method: 2.1 Phosphoinositide-3 kinase (PI3K)-mediated Akt 1/2 (S473) phosphorylation in Rat-1 cells
Rat-1 cells stably overexpressing a myristoylated form of the catalytic subunit of human phosphoinositide-3 kinase (PI3K) alpha, beta or delta were plated in 384-well plates at a density of 7500 (PI3K alpha), 6200 (PI3K beta), or 4000 (PI3K delta) cells in 30 ul complete growth medium (Dulbecco's modified Eagle's medium (DMEM high glucose) supplemented with 10% (v/v) fetal bovine serum, 1% (v/v) MEM non essential amino acids, 10 mM HEPES, 2 mM L-glutamine, 10 μg/mL puromycin and 1% (v/v) Penicillin/Streptomycin) and were incubated at […]/5% CO2/95% humidity for 24 h. Compounds were diluted in 384-well compound plates to obtain 8-point serial dilutions for 40 test compounds in 90% DMSO, as well as 4 reference compounds plus 16 high controls and 16 low (inhibited) controls. Predilution plates were prepared by dispensing pipetting 250 nl of compound solutions into 384-well polypropylen plates using a Hummingwell nanoliter dispensor. Compounds were prediluted by the addition of 49.75 ul complete growth medium. 10 ul of prediluted compound solution were transferred to the cell plate using a 384-well pipettor, resulting in a final DMSO concentration of 0.11%. Cells were incubated for 1 h at […]/5% CO2/95% humidity. The supernatant was removed, the cells were lysed in 20 ul of lysis buffer for AlphaScreen® SureFire® detection.
For detection of p-AKT(Ser473), the SureFire® p-Akt 1/2 (Ser473) Assay Kit (PerkinElmer, U.S.A) was used. 5 ul of cell lysate was transferred to 384-well low volume Proxiplates for detection using a 384-well pipettor. Addition of AlphaScreen® SureFire® reagents was done according to the manufacturer's protocol. First, 5 ul of reaction buffer plus activation buffer mix containing AlphaScreen® acceptor beads was added, the plate was sealed, and incubated on a plate shaker for 2 hours at room temperature. Second, 2 ul of dilution buffer containing AlphaScreen® donor beads was added, and the plate was incubated on plate shaker as above for a further 2 hours. The plate was read on an AlphaScreen® compatible plate reader, using standard AlphaScreen® settings.

The next experiment addresses T2, PI3K delta (Homo sapiens, UniProt O00329).
T2 construct: for the full-length p110-d subunit are generated and fused by overlapping PCR; His tag (C); made in house; host or cells: baculovirus; Tn5 (Trichoplusia ni) or TiniPro insect cells
Kind of experiment: Enzymatic PI3K delta isoform inhibition (lipid kinase activity, Kinase-Glo). The note with it: enzymatic assay. Format: biochemical. Summed up: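 Preferred format: PI3Kδ 10 nM with PI 10 μg/mL and ATP 1 μM in Tris 10 mM pH 7.5, MgCl2 3 mM, NaCl 50 mM, CHAPS, DTT; 60 min at RT, 8 concentrations. ATP depletion read by Kinase-Glo luminescence; IC50 from four-parameter logistic fit.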
For orientation: Kinase-Glo reads ATP consumption through a luciferase reaction.

T2 sequence (O00329 with tags, fused parts or gaps limits assumed): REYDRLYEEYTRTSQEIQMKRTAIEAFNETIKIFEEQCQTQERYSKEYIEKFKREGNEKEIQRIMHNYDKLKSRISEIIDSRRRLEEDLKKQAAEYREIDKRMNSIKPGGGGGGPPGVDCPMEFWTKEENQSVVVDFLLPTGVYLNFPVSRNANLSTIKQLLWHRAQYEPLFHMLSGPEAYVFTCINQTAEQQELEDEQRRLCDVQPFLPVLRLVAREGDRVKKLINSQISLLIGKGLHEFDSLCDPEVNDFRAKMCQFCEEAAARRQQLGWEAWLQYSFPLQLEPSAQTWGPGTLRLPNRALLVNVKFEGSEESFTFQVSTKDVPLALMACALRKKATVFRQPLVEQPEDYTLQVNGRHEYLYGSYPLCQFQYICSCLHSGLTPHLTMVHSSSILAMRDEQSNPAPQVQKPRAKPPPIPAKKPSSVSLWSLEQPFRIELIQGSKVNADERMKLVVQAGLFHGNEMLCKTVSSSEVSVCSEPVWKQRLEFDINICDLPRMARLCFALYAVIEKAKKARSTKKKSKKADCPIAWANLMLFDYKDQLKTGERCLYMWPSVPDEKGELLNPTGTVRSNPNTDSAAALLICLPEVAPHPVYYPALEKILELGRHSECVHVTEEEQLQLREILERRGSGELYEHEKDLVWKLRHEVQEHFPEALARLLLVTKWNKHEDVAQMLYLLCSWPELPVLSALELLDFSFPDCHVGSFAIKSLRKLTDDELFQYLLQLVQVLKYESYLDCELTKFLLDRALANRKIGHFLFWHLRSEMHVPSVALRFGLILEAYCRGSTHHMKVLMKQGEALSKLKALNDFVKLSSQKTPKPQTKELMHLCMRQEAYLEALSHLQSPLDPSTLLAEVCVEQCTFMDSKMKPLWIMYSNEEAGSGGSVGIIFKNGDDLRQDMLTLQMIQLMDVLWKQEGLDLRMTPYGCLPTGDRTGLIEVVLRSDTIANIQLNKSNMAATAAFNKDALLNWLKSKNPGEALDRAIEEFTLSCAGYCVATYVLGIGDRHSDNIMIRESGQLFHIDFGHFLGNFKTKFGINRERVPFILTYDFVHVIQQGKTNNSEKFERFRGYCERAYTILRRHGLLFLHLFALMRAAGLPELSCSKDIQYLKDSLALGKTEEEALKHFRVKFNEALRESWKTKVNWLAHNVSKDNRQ
T1 sequence (O00329 whole entry): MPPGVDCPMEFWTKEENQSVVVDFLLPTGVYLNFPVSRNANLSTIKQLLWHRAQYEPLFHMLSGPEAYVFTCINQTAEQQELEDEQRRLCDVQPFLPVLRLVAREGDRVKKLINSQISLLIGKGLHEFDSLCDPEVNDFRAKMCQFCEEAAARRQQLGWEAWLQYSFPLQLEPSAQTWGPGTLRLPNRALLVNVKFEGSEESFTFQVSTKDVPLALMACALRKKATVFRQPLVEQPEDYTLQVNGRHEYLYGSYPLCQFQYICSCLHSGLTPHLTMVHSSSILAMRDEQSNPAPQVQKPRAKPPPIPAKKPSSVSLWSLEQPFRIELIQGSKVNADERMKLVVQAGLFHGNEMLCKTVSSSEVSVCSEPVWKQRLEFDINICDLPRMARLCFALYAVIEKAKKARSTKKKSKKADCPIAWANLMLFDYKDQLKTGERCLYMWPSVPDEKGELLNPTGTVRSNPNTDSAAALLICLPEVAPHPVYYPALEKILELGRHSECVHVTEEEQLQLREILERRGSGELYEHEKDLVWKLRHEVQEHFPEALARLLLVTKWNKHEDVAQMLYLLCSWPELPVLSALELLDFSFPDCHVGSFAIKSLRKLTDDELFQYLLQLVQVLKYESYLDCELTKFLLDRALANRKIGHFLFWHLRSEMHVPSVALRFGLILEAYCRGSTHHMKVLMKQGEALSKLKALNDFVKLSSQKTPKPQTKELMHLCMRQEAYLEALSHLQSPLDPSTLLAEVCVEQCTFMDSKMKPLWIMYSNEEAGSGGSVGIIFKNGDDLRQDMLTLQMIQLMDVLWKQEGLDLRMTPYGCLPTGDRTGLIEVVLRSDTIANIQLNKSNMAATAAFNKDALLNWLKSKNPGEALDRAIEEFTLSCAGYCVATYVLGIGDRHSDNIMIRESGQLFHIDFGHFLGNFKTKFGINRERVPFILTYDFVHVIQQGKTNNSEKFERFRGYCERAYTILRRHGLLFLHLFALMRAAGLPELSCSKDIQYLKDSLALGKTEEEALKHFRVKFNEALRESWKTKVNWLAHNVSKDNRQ
T1 sequence (Q63787 whole entry partner): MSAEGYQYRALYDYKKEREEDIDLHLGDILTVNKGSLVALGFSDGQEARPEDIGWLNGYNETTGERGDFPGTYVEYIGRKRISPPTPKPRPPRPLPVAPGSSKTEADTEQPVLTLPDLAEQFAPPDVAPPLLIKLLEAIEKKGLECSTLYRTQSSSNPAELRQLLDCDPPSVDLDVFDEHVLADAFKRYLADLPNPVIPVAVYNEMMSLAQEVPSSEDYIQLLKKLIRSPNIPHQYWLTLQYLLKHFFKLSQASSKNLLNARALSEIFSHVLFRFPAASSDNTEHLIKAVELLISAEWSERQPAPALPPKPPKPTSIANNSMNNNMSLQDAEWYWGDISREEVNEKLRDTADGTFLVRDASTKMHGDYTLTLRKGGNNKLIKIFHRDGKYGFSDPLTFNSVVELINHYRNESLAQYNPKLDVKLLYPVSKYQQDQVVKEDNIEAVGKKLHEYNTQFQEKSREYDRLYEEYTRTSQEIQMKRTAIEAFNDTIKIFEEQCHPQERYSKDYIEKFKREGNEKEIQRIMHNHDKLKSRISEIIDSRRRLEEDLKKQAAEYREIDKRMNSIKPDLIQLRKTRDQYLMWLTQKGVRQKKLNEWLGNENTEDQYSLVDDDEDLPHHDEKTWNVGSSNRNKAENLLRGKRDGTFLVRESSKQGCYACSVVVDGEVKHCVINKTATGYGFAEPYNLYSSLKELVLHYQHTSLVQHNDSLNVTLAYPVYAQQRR

For the compound `COc1ncc(-c2ccnc3ccc(O[C@H]4CCN(C(=O)C5CCS(=O)(=O)CC5)C4)cc23)cc1C` [Example A15, (1,1-Dioxo-hexahydro-1lambda*6*-thiopyran-4-yl)-{(S)-3-[4-(6-methoxy-5-methyl-pyridin-3-yl)-quinolin-6-yloxy]-pyrrolidin-1-yl}-methanone], the 50% inhibitory concentration (IC50) in experiment [1] worked out at 52 nM; on PI3K delta, 7 nM.
Turning to `COc1ncc(-c2ccnc3ccc(O[C@H]4CCN(C(=O)C5CCS(=O)(=O)CC5)C4)cc23)cc1Cl` [Example A1, {(S)-3-[4-(5-Chloro-6-methoxy-pyridin-3-yl)-quinolin-6-yloxy]-pyrrolidin-1-yl}-(1,1-dioxo-hexahydro-1lambda*6*-thiopyran-4-yl)-methanone], the IC50 in experiment [1] was 32 nM; on PI3K delta, < 3 nM.
As for `Cc1cc(-c2ccnc3cc(F)c(O[C@H]4CCN(C(=O)C5CCOCC5)C4)cc23)cnc1S(C)(=O)=O` [Example C2, {(S)-3-[7-Fluoro-4-(6-methanesulfonyl-5-methyl-pyridin-3-yl)-quinolin-6-yloxy]-pyrrolidin-1-yl}-(tetrahydro-pyran-4-yl)-methanone], the concentration for half-maximal inhibition (IC50) in experiment [1] was 116 nM; on PI3K delta it was 332 nM.
Regarding `COc1ncc(-c2ccnc3ccc(O[C@H]4CCN(C(=O)C5CCS(=O)(=O)CC5)C4)cc23)cc1C(F)F` [Example A6, {(S)-3-[4-(5-Difluoromethyl-6-methoxy-pyridin-3-yl)-quinolin-6-yloxy]-pyrrolidin-1-yl}-(1,1-dioxo-hexahydro-1lambda*6*-thiopyran-4-yl)-methanone], the IC50 in experiment [1] came to 78 nM; at PI3K delta, 4 nM.
In the case of `COc1ncc(-c2ccnc3ccc(O[C@H]4CCN(C(=O)[C@@H]5CCN(C(C)=O)C5)C4)cc23)cc1C(F)F` [Example A24, 1-((R)-3-{(S)-3-[4-(5-Difluoromethyl-6-methoxy-pyridin-3-yl)-quinolin-6-yloxy]-pyrrolidine-1-carbonyl}-pyrrolidin-1-yl)-ethanone], the values for the IC50 (in experiment [1]; on PI3K delta) were 14 nM and 12 nM, respectively.
Regarding `COc1ncc(-c2ccnc3cc(F)c(O[C@H]4CCN(C(=O)C5CCS(=O)(=O)CC5)C4)cc23)cc1C` [Example C1, (1,1-Dioxo-hexahydro-1lambda*6*-thiopyran-4-yl)-{(S)-3-[7-fluoro-4-(6-methoxy-5-methyl-pyridin-3-yl)-quinolin-6-yloxy]-pyrrolidin-1-yl}-methanone], the IC50 turned out to be 246 nM in experiment [1] and 302 nM on PI3K delta.
`COc1ncc(-c2ccnc3ccc(O[C@H]4CCN(C(=O)[C@@H]5CCN(C(C)=O)C5)C4)cc23)cc1C` [Example A10, 1-((R)-3-{(S)-3-[4-(6-Methoxy-5-methyl-pyridin-3-yl)-quinolin-6-yloxy]-pyrrolidine-1-carbonyl}-pyrrolidin-1-yl)-ethanone]: the IC50 was 16 nM in experiment [1] and 5 nM on PI3K delta.
Regarding `COc1ncc(-c2ccnc3ccc(O[C@H]4CCN(C(=O)C5CCS(=O)(=O)CC5)C4)c(C)c23)cc1C` [Example B3, (1,1-Dioxo-hexahydro-1lambda*6*-thiopyran-4-yl)-{(S)-3-[4-(6-methoxy-5-methyl-pyridin-3-yl)-5-methyl-quinolin-6-yloxy]-pyrrolidin-1-yl}-methanone], the IC50 in experiment [1] stood at 105 nM; at PI3K delta it was 5 nM.
Take `CCC(=O)N1CC[C@H](Oc2ccc3nccc(-c4cnc(S(C)(=O)=O)c(C)c4)c3c2)C1` [Example A25, 1-{(S)-3-[4-(6-Methanesulfonyl-5-methyl-pyridin-3-yl)-quinolin-6-yloxy]-pyrrolidin-1-yl}-propan-1-one]: the IC50 in experiment [1] was found to be 260 nM; on PI3K delta, 12 nM.
Turning to `COc1ncc(-c2ccnc3ccc(O[C@H]4CCN(C(=O)[C@@H]5CCN(C(C)=O)C5)C4)c(C)c23)cc1C(F)F` [Example B1, 1-((R)-3-{(S)-3-[4-(5-Difluoromethyl-6-methoxy-pyridin-3-yl)-5-methylquinolin-6-yloxy]-pyrrolidine-1-carbonyl}-pyrrolidin-1-yl)-ethanone], the results for the IC50 (in experiment [1]; at PI3K delta) were 14 nM and 5 nM, respectively.

These data come from patent publication US20150148377A1, “Quinoline Derivatives” (NOVARTIS AG, priority 2011, published 2015).
